Measured values from the NIST ThermoML archive (doi:10.1021/acs.jced.9b00147).

Assay: xn = mol fraction of the nth substance listed
Conditions: 101.3 kPa, Liquid; for speed of sound: Single path-length method; for mass density: Vibrating tube method

CC(=O)[O-].[NH3+]CCO [2-hydroxyethylammonium acetate] + CC(C)O
Conditions	mass density, 293.15 K [kg/m3]	mass density, 303.15 K [kg/m3]	mass density, 313.15 K [kg/m3]	mass density, 323.15 K [kg/m3]	speed of sound, 293.15 K [m/s]	speed of sound, 303.15 K [m/s]	speed of sound, 313.15 K [m/s]	speed of sound, 323.15 K [m/s]
x1 = 0.102	840.8	832.7	824.4	815.7	1218.6	1184.9	1151	1116.9
x1 = 0.2	888.4	880.8	872.9	864.8	1275.2	1242.9	1210.5	1177.8
x1 = 0.299	930.8	923.5	916	908.3	1334	1302.6	1271.5	1240.1
x1 = 0.397	970.4	963.3	956.2	948.5	1397.5	1366.2	1335.9	1305.6
x1 = 0.493	1007	999.7	992.8	985.5	1465.1	1435.1	1405.8	1376.6
x1 = 0.6	1042	1037	1030	1023	1549.8	1516.7	1487.9	1460.2
x1 = 0.692	1072	1066	1060	1052	1620.1	1588.6	1559.5	1532.3
x1 = 0.798	1103	1097	1091	1085	1701.8	1666.8	1638.2	1612
x1 = 0.894	1129	1124	1118	1112	1779	1742.8	1713.8	1687.8
x1 = 1	1150	1144	1139	1132	1812.9	1781.2	1754.7	1730.9

CC(=O)[O-].[NH3+]CCO [2-hydroxyethylammonium acetate] + CCCO
Conditions	mass density, 293.15 K [kg/m3]	mass density, 303.15 K [kg/m3]	mass density, 313.15 K [kg/m3]	mass density, 323.15 K [kg/m3]	speed of sound, 293.15 K [m/s]	speed of sound, 303.15 K [m/s]	speed of sound, 313.15 K [m/s]	speed of sound, 323.15 K [m/s]
x1 = 0.101	855.6	847.8	839.9	831.9	1274.5	1241.6	1208.9	1176.3
x1 = 0.199	900	892.5	884.8	877.1	1323.5	1291.7	1260.2	1228.7
x1 = 0.298	941.7	934.5	927.2	919.6	1377.3	1346.4	1316	1285.6
x1 = 0.401	981.1	974.1	967.3	960.3	1437.7	1407.8	1378.3	1348.9
x1 = 0.502	1016	1010	1003	996.3	1502	1472.9	1444.4	1416.3
x1 = 0.592	1046	1040	1033	1027	1561.1	1532.2	1504.3	1477
x1 = 0.681	1073	1067	1061	1055	1624.3	1595.1	1567.7	1541.3
x1 = 0.795	1104	1098	1092	1086	1711.5	1678.6	1650.8	1624
x1 = 0.89	1130	1124	1118	1112	1777.8	1743.4	1715.9	1690.2
x1 = 1	1150	1144	1139	1133	1812.9	1781.2	1754.7	1730.9
